In patent US20120142646A1, “Novel Compounds 621” (priority 2006, published 2012):
Where a name gives a salt, the structure may show the parent alone.

Molecular target: T1, Adrenergic β2 (Homo sapiens, UniProt P07550)
T1 construct: Adherent H292 cells were removed from tissue culture flasks; endogenous in cells; host or cells: H292 cells
Assay: Adrenergic β2 mediated cAMP production in H292 cells (AlphaScreen cAMP detection)
Format: cell-based
Design: key to β2 Int Act: fraction of formoterol maximum activity (formoterol = 1)
Settings: Intrinsic Activity as a fraction relative to the maximum activity determined for formoterol
In short: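 H292 cells pre-treated 10 min with rolipram (300 μM final), then given agonist for 60 min at room temperature in HBSS/10 mM HEPES pH 7.4, 1.6% DMSO final. Lysate cAMP measured by AlphaScreen against a cAMP standard curve. Four-parameter fit gives pEC50; intrinsic activity relative to formoterol maximum.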

T1 sequence (P07550 whole entry): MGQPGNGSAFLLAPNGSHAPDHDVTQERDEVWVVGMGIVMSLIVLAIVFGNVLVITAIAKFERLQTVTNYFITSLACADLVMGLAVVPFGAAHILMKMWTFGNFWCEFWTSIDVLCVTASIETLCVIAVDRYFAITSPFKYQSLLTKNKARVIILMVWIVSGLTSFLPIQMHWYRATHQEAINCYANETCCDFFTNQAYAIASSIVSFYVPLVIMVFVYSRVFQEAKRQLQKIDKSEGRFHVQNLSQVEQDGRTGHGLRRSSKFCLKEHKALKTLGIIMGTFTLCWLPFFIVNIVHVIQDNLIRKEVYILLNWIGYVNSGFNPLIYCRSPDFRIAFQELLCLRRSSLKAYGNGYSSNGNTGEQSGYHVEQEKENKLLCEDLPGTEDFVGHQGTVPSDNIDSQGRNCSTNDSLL

Structure (SMILES)	β2 Int Act
O=C1COc2c(CCNCCN(C(=O)CCNCCc3cccc(F)c3F)C3CCCCC3)ccc(O)c2N1 [Example 36, N-Cyclohexyl-3-(2,3-difluorophenethylamino)-N-(2-(2-(5-hydroxy-3-oxo-3,4-dihydro-2H-benzo[b][1,4]oxazin-8-yl)ethylamino)ethyl)propanamide bis(trifluoroacetate)]	0.91
O=C(CCNCCc1ccc(Cl)cc1)N(CCNCCc1ccc(O)c2[nH]c(=O)ccc12)C1CCCCCC1 [Example 4, 3-(4-Chlorophenethylamino)-N-cycloheptyl-N-(2-(2-(8-hydroxy-2-oxo-1,2-dihydroquinolin-5-yl)ethylamino)ethyl)propanamide bis(trifluoroacetate)]	0.79
O=C1COc2c(CCNCCN(C(=O)CCNCCc3ccc(Cl)cc3Cl)C3CCCCC3)ccc(O)c2N1 [Example 31, N-Cyclohexyl-3-(2,4-dichlorophenethylamino)-N-(2-(2-(5-hydroxy-3-oxo-3,4-dihydro-2H-benzo[b][1,4]oxazin-8-yl)ethylamino)ethyl)propanamide bis(trifluoroacetate)]	0.94

Continued, values first:

β2 Int Act	Structure (SMILES)
0.98	O=C1COc2c(CCNCCN(C(=O)CCNCCc3cc(F)ccc3F)C3CCCCC3)ccc(O)c2N1 [Example 38, N-Cyclohexyl-3-(2,5-difluorophenethylamino)-N-(2-(2-(5-hydroxy-3-oxo-3,4-dihydro-2H-benzo[b][1,4]oxazin-8-yl)ethylamino)ethyl)propanamide bis(trifluoroacetate)]
0.97	O=C1COc2c(CCNCCN(C(=O)CCOCCc3cccc(F)c3)C3CCCCC3)ccc(O)c2N1 [Example 74, N-Cyclohexyl-3-(3-fluorophenethoxy)-N-(2-(2-(5-hydroxy-3-oxo-3,4-dihydro-2H-benzo[b][1,4]oxazin-8-yl)ethylamino)ethyl)propanamide trifluoroacetate]
0.96	Cc1cc(CCNCCC(=O)N(CCNCCc2ccc(O)c3c2OCC(=O)N3)C2CCCCC2)ccc1F [Example 40, N-Cyclohexyl-3-(4-fluoro-3-methylphenethylamino)-N-(2-(2-(5-hydroxy-3-oxo-3,4-dihydro-2H-benzo[b][1,4]oxazin-8-yl)ethylamino)ethyl)propanamide bis(trifluoroacetate)]
0.97	O=C1COc2c(CCNCCN(C(=O)CCOCCc3ccccc3)C3CCCCC3)ccc(O)c2N1 [Example 70, N-Cyclohexyl-N-(2-(2-(5-hydroxy-3-oxo-3,4-dihydro-2H-benzo[b][1,4]oxazin-8-yl)ethylamino)ethyl)-3-phenethoxypropanamide trifluoroacetate]
